Measured values taken from PMC8624457, “Synthesis and Characterization of the Ethylene-Carbonate-Linked L-Valine Derivatives of 4,4-Dimethylcurcumin with Potential Anticancer Activities” (Molecules, 2021).
Values after ≈ are worked out from the molar mass of the structure shown. Values joined by “and” are separate entries in the source; they are usually repeats but may differ in a detail not shown here. Identical values can stand only once. Counter-ions that a name gives are not always drawn.

Legend:
[1] = Water solubility by LC-MS analysis; type: physicochemical; conditions: for solubility: 25 °C, thermodynamic from solid, room temperature (25 ± 1 °C)
Source text: 1-TFA, and 2-TFA with the linkage of L-valine-TFA side chain on either or both of the phenol groups were expected to show an increment of water solubility. We used LC-MS analysis to determine the water solubility of DMCU, 1-TFA, and 2-TFA. Initially, the LC signals detected by ESI+ mode for each compound were assigned as follows: [M + Na]^+ for DMCU, [M + H]^+ for 1-TFA, and [M + 2H]^2+ for 2-TFA (Figure 3A). The extracted ion chromatogram (XIC) was acquired by extracting the m/z signal of 419.1461 for DMCU, 583.2652 for 1-TFA, and 385.1865 for 2-TFA with a tolerance of ±5 ppm for each sample. The retention time of signals obtained from reverse phase liquid chromatography (RPLC) was 5.15 min (DMCU), 3.97 min (1-TFA), and 3.22 min (2-TFA) (Figure 3B). The limit of quantification was 0.16 ng for DMCU (S/N = 375.81) and 1 ng for 1-TFA (S/N = 231.24) or 2-TFA (S/N = 131.19). […] Next, to determine the water solubility of DMCU, 1-TFA and 2-TFA, aqueous solutions of these compounds at different concentrations were prepared for the generation of corresponding calibration curves.
The quantitative analysis was performed using LC-MS and the results were shown in Figure 3C–E. Corresponding saturated water solutions were prepared and then diluted with ultrapure water for LC-MS analysis. […] For the analysis of DMCU water solubility, a clear solution of DMCU in 40% MeOH and 60% water (with a concentration of 1000 ppm) was prepared and divided into four portions. Each part was diluted with an appropriate amount of ultrapure water, resulting in DMCU precipitates, and the precipitates were then removed by centrifugation to give four samples with theoretical concentrations of 0.8, 4, 20, 100 ppm, respectively. The calculated concentrations of these […] samples were decided by comparing the LC-MS signals of corresponding samples to the calibration curves. (Figure 3F). The maximum concentration of DMCU in water was confirmed as 18 ppm at room temperature.
The stock solutions of 1-TFA and 2-TFA were prepared by dissolving 20 mg of 1-TFA and 2-TFA, respectively, in 1 mL of 1% formic acid(aq). The standard solution of 1-TFA or 2-TFA of 0.5, 1.25, 2.5, 5 and 12.5 μg/mL was prepared by diluting the aforementioned stock solution with an adequate amount of 40% methanol in ultrapure water. The stock solution of DMCU was prepared by dissolving 10 mg of DMCU in 1 mL of methanol. The DMCU stock solution was diluted with 40% methanol in ultrapure water to afford three standard solutions with concentrations of 0.08, 0.4, and 2 μg/mL.
The saturated aqueous solutions of compound 1-TFA and 2-TFA were prepared by a three-steps sequence including supersaturated solution preparation (addition of 20 mg compounds into 50 μL ultrapure water), centrifugation (10 min at 14,000× g), and collection of the resulting supernatants to afford the desired solutions. The saturated aqueous solutions were then diluted by ultrapure water as the ratio of 1 to 100,000 for LC-MS analysis.
The LC-MS system consisted of an ultraperformance liquid chromatography (UPLC) system (ACQUITY UPLC I-Class, Waters, Milford, MA, USA and an ESI/APCI source of 4 kDa quadrupole time-of-flight mass spectrometer (Waters VION, Waters, Milford, MA, USA). A BEH C18 column (2.1 × 100 mm, Walters, Milford, MA, USA) was equipped to perform chromatographic separation. The flow rate of 0.2 mL/min with a column temperature of 35 °C was set for each sample injection. The elution started with 60% mobile phase A (ultrapure water + 0.1% formic acid) and 40% mobile phase B (100% methanol + 0.1% formic acid), then held at 40% B for 0.5 min, raised to 95% B in 5.5 min, held at 95% B for 1 min, and then lowered to 40% B in 1 min. The column was equilibrated by pumping 40% B for 4 min. […]

NCI-H460 cells = assay: Intracellular uptake and bioconversion by LC-MS of cell extracts; type: in vitro ADME, Human; conditions: 10 μM
Procedure: To test our hypothesis, intracellular uptake of DMCU, 1-TFA, and 2-TFA were evaluated in NCI-H460 cells which cells were more sensitive to 1-TFA and 2-TFA than DMCU. The intracellular drug uptake was generally evaluated using a fluorescence microscope or flow cytometry. However, the extremely similar chromophores among DMCU, 1-TFA, and 2-TFA caused failure in detection of individual signals by these two methodologies and therefore drew us to develop a versatile LC-MS based analysis for the cellular uptake evaluations. To estimate the cellular uptake, NCI-H460 cells were treated with each compound for the indicated time periods and the cell extracts were then subjected to LC-MS analysis to determine the intracellular levels of DMCU, 1-TFA, and […] (Figure 4). In the treatment groups, the intracellular levels of each compound were detected by LC-MS where the amount of the compound was quantified by comparing the LC-MS signals of cellular extracts to the corresponding drug calibration curves. […] The maximal uptake levels of 1-TFA and DMCU were detected by 60 ng and 7 ng, respectively, at 60 min after treatment (Figure 4A,B). In 2-TFA treated group, the maximal cellular uptakes occurred during the time interval from 30 to 60 min after drug treatment and acquired 100 ng of DMCU, 12 ng of 1-TFA and 1.2 ng of 2-TFA (Figure 4A–C). […] The cellular uptake efficiency of H460 cells was then evaluated in terms of the total quantity of DMCU, 1-TFA, and 2-TFA. […]

NCI-H358 = assay: In vitro antiproliferative MTT assay; type: cell-based; conditions: Homo sapiens, NCI-H358, 72 h, mean ± SD
Procedure: (§1) Human NSCLC cell lines (NCI-H460, NCI-H358 and A549) were obtained from ATCC. All cell lines were grown in RPMI medium supplemented with 10% fetal bovine serum (FBS) and antibiotics and incubated at 37 °C in a humidified atmosphere with 5% CO2.
(§2) Antiproliferative activities to various compounds was assessed using MTT assay. In brief, 2000–5000 cells were seeded in each well of 96-well plates and incubated at 37 °C overnight before drug treatment. After a three-day drug treatment, MTT solution was added to each well and the plates were further incubated at 37 °C for 6 h. Measurement of cell viability was assessed by absorbance at 570 nm. The IC50 values for each drug were determined using CompuSyn software based on the median-effect principle and plot.

A549 = assay: In vitro antiproliferative MTT assay; type: cell-based; conditions: Homo sapiens, A549, 72 h, mean ± SD
Procedure: as §1, §2

NCI-H460 = assay: In vitro antiproliferative MTT assay; type: cell-based; conditions: Homo sapiens, NCI-H460, 72 h, mean ± SD
Procedure: as §1, §2

[2] = Storage stability by HPLC purity / 1H NMR; type: physicochemical; conditions: room temperature
Procedure: The procedures employed for the synthesis of targeted compounds 1 and 2 are depicted in Scheme 1. The required DMCU was prepared according to a three-step sequence reported in the literature. Initially, the commercially available Boc-L-valine 3 was reacted with 2-aminoethanol 4 in the presence of HOTT and Et3N to provide the amide product 5 in 82% yield. Under treatment with 4-nitrophenyl chloroformate and DIPEA, 5 was converted into 6 in 87% yield. One equivalent or excess amount of 6 was coupled with the deprotonated DMCU, formed in situ by the treatment of DMCU with Cs2CO3, to afford compound 7 and 8, respectively. Compound 7 and 8 thus obtained were subjected to Boc deprotection under the standard conditions to give 1 and 2, respectively. The preliminary stability test was performed with NMR by applying 2 as a typical example. […] Based on our previous experience in the synthesis of DMCU-HMP, the instability could be ascribed to the cross-hydrolysis of carbonate group by the terminal amino group of side chain. Salt formation reactions of the N-terminal L-valine were then carried out to cap the nucleophilic amino group. […] 2-TFA is also stable in DMSO solution (0.1 M concentration). After 6-day storage at room temperate, the purity of 2-TFA remained intact. Accordingly, a similar salt formation procedure was employed to produce the stable 1-TFA. Compound 1-TFA along with 2-TFA were then applied for the following evaluations.
Figure 2 The stability assessments of 2 and 2-TFA. (A) A clear solution of 2 in d-chloroform was subjected to a purity assessment by ^1H NMR spectroscopy at various storage times (fresh prepared (≤1 h); 1 day; 4 days). (B) The HPLC purity of fresh prepared 2-TFA was 95.74%. The fresh prepared 2-TFA in a solid state was stored at room temperature for another 6 days and then dissolved in water for HPLC analysis. The HPLC purity was decided as 95.55%. The fresh prepared 2-TFA was dissolved in DMSO and the resulting solution was stored at room temperature for another 6 days. HPLC purity of 2-TFA in the DMSO solution was 94.66%. […]

[3] = test system: NCI-H460, NCI-H358 and A549 cell lines; assay: In vitro antiproliferative MTT assay, range over the NSCLC lines; type: cell-based; conditions: Homo sapiens, read-out: IC50 values in these cell lines
Procedure: as §1, §2

MDA-MB-231 breast cancer = conditions: cited from earlier work
[4] = test system: HCT-116 colon cancer cell; conditions: cited from earlier work

Row | solubility ([1]; water, LC-MS) [mg/mL] | fold increased solubility compared to DMCU ([1]; water, room temperature) | IC50 (NCI-H358) [nM] | IC50 (A549) [nM] | IC50 (NCI-H460) [nM] | Compound | further results
1 | 250 | 13,700 fold and > 10,000 fold | 1920 ± 130 | 3170 ± 140 | 1950 ± 160 | COc1cc(/C=C/C(=O)C(C)(C)C(=O)/C=C/c2ccc(OC(=O)OCCNC(=O)[C@@H](N)C(C)C)c(OC)c2)ccc1O [Compound 1-TFA] | maximal uptake level: intracellular 1-TFA (NCI-H460 cells; 1-TFA-treated NCI-H460 cells, at 60 min after treatment): 60 ng
2 | 376 | 20,800 fold and > 10,000 fold | 1260 ± 60 | 1990 ± 240 | 1690 ± 40 | COc1cc(/C=C/C(=O)C(C)(C)C(=O)/C=C/c2ccc(OC(=O)OCCNC(=O)[C@@H](N)C(C)C)c(OC)c2)ccc1OC(=O)OCCNC(=O)[C@@H](N)C(C)C [Compound 2-TFA] | HPLC purity after storage in DMSO solution ([2]; DMSO solution (0.1 M), 6 days, fresh prepared 95.74%): 94.66%; HPLC purity after storage as solid ([2]; solid state, 6 days, fresh prepared 95.74%): 95.55%; maximal cellular uptake: intracellular 2-TFA (NCI-H460 cells; 2-TFA-treated NCI-H460 cells, 30 to 60 min after drug treatment): 1.2 ng
3 | 0.018 (≈ 45.4 µM) | – | 1620 ± 120 | 2500 ± 30 | 2130 ± 160 | COc1cc(/C=C/C(=O)C(C)(C)C(=O)/C=C/c2ccc(O)c(OC)c2)ccc1O [DMCU, 4,4-Dimethylcurcumin] | maximum concentration in water ([1]; room temperature, dilution of 40% MeOH solution with water, precipitate removed, LC-MS): 18 ppm; water solubility (in words) ([1]; water): virtually insoluble in water; IC50 [3]: 1620 to 2500 nM; maximal uptake: intracellular DMCU (NCI-H460 cells; DMCU-treated NCI-H460 cells, at 1–2 h post-drug treatment, extract of approx. 1 × 10^6 cells): about 100 ng

The next lines start with the molecule.

Row | Compound | solubility ([1]; water, LC-MS) [mg/mL] | fold increased solubility compared to DMCU ([1]; water, room temperature) | IC50 (NCI-H358) [nM] | IC50 (A549) [nM] | IC50 (NCI-H460) [nM] | further results
4 | COc1cc(/C=C/C(=O)C(C)(C)C(=O)/C=C/c2ccc(OC(=O)OCCNC(=O)[C@@H](N)C(C)C)c(OC)c2)ccc1OC(=O)OCCNC(=O)[C@@H](N)C(C)C [Compound 2] | – | – | – | – | – | stability by 1H NMR (in words) ([2]; solution in d-chloroform, fresh, 1 day, 4 days): gradually degraded into unidentified products
5 | COc1cc(/C=C/C(=O)C(C)(C)C(=O)/C=C/c2ccc(OC(=O)C(C)(CO)CO)c(OC)c2)ccc1OC(=O)C(C)(CO)CO [DMCU-HMP, 4,4-dimethyl substituted curcuminoid 2,2-bis(hydroxymethyl)propionate] | – | – | – | – | – | IC50 (MDA-MB-231 breast cancer): 2200 nM; IC50 [4]: 3.1 µM
